Reference: US20260285850A1, “SUBSTITUTED OXAZOLIDINONES AND IMIDAZOLINONES AS HERBICIDES” (FMC CORPORATION, priority 2023, published 2026)

Assays:
Assay type in all cases: in vivo
[1] = tested on: barnyardgrass (Echinochloa crus-galli); experiment: Test A preemergence soil spray, visual injury rating 0-100; details: 10 days, 0 = no effect, 100 = complete control
In short: (§1)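 Visual injury ratings (0, no effect; 100, complete control) were assigned relative to untreated plants 10 days after treatment. Test chemicals, formulated with a surfactant-containing non-phytotoxic solvent, were applied in loam-sand soil either as a directed soil spray before emergence or to emerged plants, and plants were kept in a greenhouse.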

[2] = tested on: blackgrass (Alopecurus myosuroides); experiment: as above; details: 10 days, 0 = no effect, 100 = complete control
In short: as §1

[3] = tested on: corn (Zea mays); experiment: as above; details: 10 days, 0 = no effect, 100 = complete control
In short: as §1

[4] = tested on: green foxtail (Setaria viridis); experiment: as above; details: 10 days, 0 = no effect, 100 = complete control
In short: as §1

[5] = tested on: kochia (Bassia scoparia); experiment: as above; details: 10 days, 0 = no effect, 100 = complete control
In short: as §1

[6] = tested on: oat, wild (wild oat, Avena fatua); experiment: as above; details: 10 days, 0 = no effect, 100 = complete control
In short: as §1

[7] = tested on: palmer (palmer amaranth, palmer pigweed, Amaranthus palmeri); experiment: as above; details: 10 days, 0 = no effect, 100 = complete control
In short: as §1

[8] = tested on: ragweed (common ragweed, Ambrosia artemisiifolia); experiment: as above; details: 10 days, 0 = no effect, 100 = complete control
In short: as §1

[9] = tested on: ryegrass, Italian (italian ryegrass, Lolium multiflorum); experiment: as above; details: 10 days, 0 = no effect, 100 = complete control
In short: as §1

[10] = tested on: soybean (Glycine max); experiment: as above; details: 10 days, 0 = no effect, 100 = complete control
In short: as §1

[11] = tested on: wheat (Triticum aestivum); experiment: as above; details: 10 days, 0 = no effect, 100 = complete control
In short: as §1

[12] = tested on: barnyardgrass (Echinochloa crus-galli); experiment: Test A postemergence application, visual injury rating 0-100; details: 10 days
In short: as §1

[13] = tested on: blackgrass (Alopecurus myosuroides); experiment: as above; details: 10 days
In short: as §1

[14] = tested on: corn (Zea mays); experiment: as above; details: 10 days
In short: as §1

[15] = tested on: galium (catchweed bedstraw, Galium aparine); experiment: as above; details: 10 days
In short: as §1

[16] = tested on: green foxtail (Setaria viridis); experiment: as above; details: 10 days
In short: as §1

[17] = tested on: horseweed (Erigeron canadensis); experiment: as above; details: 10 days
In short: as §1

[18] = tested on: kochia (Bassia scoparia); experiment: as above; details: 10 days
In short: as §1

[19] = tested on: oat, wild (wild oat, Avena fatua); experiment: as above; details: 10 days
In short: as §1

[20] = tested on: palmer (palmer amaranth, palmer pigweed, Amaranthus palmeri); experiment: as above; details: 10 days
In short: as §1

[21] = tested on: ragweed (common ragweed, Ambrosia artemisiifolia); experiment: as above; details: 10 days
In short: as §1

[22] = tested on: ryegrass, Italian (italian ryegrass, Lolium multiflorum); experiment: as above; details: 10 days
In short: as §1

[23] = tested on: soybean (Glycine max); experiment: as above; details: 10 days
In short: as §1

[24] = tested on: wheat (Triticum aestivum); experiment: as above; details: 10 days
In short: as §1

[25] = tested on: barnyardgrass (Echinochloa crusgalli); experiment: Test B flooded paddy test, visual plant response rating 0-100; details: 250 g ai/ha, Flood, applied to paddy water, evaluated after 13 days
In short: (§2)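 Compounds applied to standing paddy water (3 cm above soil, maintained for the test duration) on 2-leaf-stage plants; visual rating vs controls at 13 days, greenhouse.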

[26] = tested on: ducksalad (Heteranthera limosa); experiment: as above; details: 250 g ai/ha, Flood, applied to paddy water, evaluated after 13 days
In short: as §2

[27] = tested on: rice (Oryza sativa); experiment: as above; details: 250 g ai/ha, Flood, applied to paddy water, evaluated after 13 days
In short: as §2

[28] = tested on: sedge, umbrella (small-flower umbrella sedge, Cyperus difformis); experiment: as above; details: 250 g ai/ha, Flood, applied to paddy water, evaluated after 13 days
In short: as §2

[29] = 31 g ai/ha, postemergence, 0 = no effect, 100 = complete control
[30] = Postemergence, 125 g ai/ha, 0 is no effect, 100 is complete control

CNC(=O)C1CCC(NC(=O)C2(C)CN(c3cc(F)cc(F)c3)C(=O)O2)C1 (stereo not shown) [Compound 14]
Barnyardgrass plant response rating (0-100) ([1]; 31 g ai/ha): 0 | Barnyardgrass plant response rating (0 to 100 scale) ([1]; 125 g ai/ha): 0 | Blackgrass plant response rating (0-100) ([2]; 31 g ai/ha): 0 | Blackgrass plant response rating (0 to 100 scale) ([2]; 125 g ai/ha): 0 | Corn plant response rating (0-100) ([3]; 31 g ai/ha): 0 | Corn plant response rating (0 to 100 scale) ([3]; 125 g ai/ha): 0 | Foxtail, Green plant response rating (0-100) ([4]; 31 g ai/ha): 0 | Foxtail, Green plant response rating (0 to 100 scale) ([4]; 125 g ai/ha): 0 | Kochia plant response rating (0-100) ([5]; 31 g ai/ha): 0 | Kochia plant response rating (0 to 100 scale) ([5]; 125 g ai/ha): 0 | Oat, Wild plant response rating (0-100) ([6]; 31 g ai/ha): 0 | Oat, Wild plant response rating (0 to 100 scale) ([6]; 125 g ai/ha): 0 | Amaranth, Palmer plant response rating (0-100) ([7]; 31 g ai/ha): 0 | Amaranth, Palmer plant response rating (0 to 100 scale) ([7]; 125 g ai/ha): 0 | Ragweed plant response rating (0-100) ([8]; 31 g ai/ha): 0 | Ragweed plant response rating (0 to 100 scale) ([8]; 125 g ai/ha): 30 | Ryegrass, Italian plant response rating (0-100) ([9]; 31 g ai/ha): 0 | Ryegrass, Italian plant response rating (0 to 100 scale) ([9]; 125 g ai/ha): 0 | Soybean plant response rating (0-100) ([10]; 31 g ai/ha): 0 | Soybean plant response rating (0 to 100 scale) ([10]; 125 g ai/ha): 0 | Wheat plant response rating (0-100) ([11]; 31 g ai/ha): 0 | Wheat plant response rating (0 to 100 scale) ([11]; 125 g ai/ha): 0 | Barnyardgrass plant response rating (0-100) [12, 29]: 0 | Barnyardgrass plant response rating (0 to 100 scale) [12, 30]: 0 | Blackgrass plant response rating (0-100) [13, 29]: 0 | Blackgrass plant response rating (0 to 100 scale) [13, 30]: 0 | Corn plant response rating (0-100) [14, 29]: 0 | Corn plant response rating (0 to 100 scale) [14, 30]: 20 | Galium plant response rating (0-100) [15, 29]: 0 | Galium plant response rating (0 to 100 scale) [15, 30]: 0 | Foxtail, Green plant response rating (0-100) [16, 29]: 0 | Foxtail, Green plant response rating (0 to 100 scale) [16, 30]: 0 | Horseweed plant response rating (0-100) [17, 29]: 0 | Horseweed plant response rating (0 to 100 scale) [17, 30]: 0 | Kochia plant response rating (0-100) [18, 29]: 0 | Kochia plant response rating (0 to 100 scale) [18, 30]: 0 | Oat, Wild plant response rating (0-100) [19, 29]: 0 | Oat, Wild plant response rating (0 to 100 scale) [19, 30]: 0 | Amaranth, Palmer plant response rating (0-100) [20, 29]: 0 | Amaranth, Palmer / Pigweed, Palmer plant response rating (0 to 100 scale) [20, 30]: 0 | Ragweed plant response rating (0-100) [21, 29]: 0 | Ragweed plant response rating (0 to 100 scale) [21, 30]: 0 | Ryegrass, Italian plant response rating (0-100) [22, 29]: 0 | Ryegrass, Italian plant response rating (0 to 100 scale) [22, 30]: 0 | Soybean plant response rating (0-100) [23, 29]: 0 | Soybean plant response rating (0 to 100 scale) [23, 30]: 0 | Wheat plant response rating (0-100) [24, 29]: 0 | Wheat plant response rating (0 to 100 scale) [24, 30]: 0 | Plant response rating, Barnyardgrass (0 to 100 scale, 0 is no effect and 100 is complete control) [25]: 0 | Plant response rating, Ducksalad (0 to 100 scale, 0 is no effect and 100 is complete control) [26]: 0 | Plant response rating, Rice (0 to 100 scale, 0 is no effect and 100 is complete control) [27]: 0 | Plant response rating, Sedge, Umbrella (0 to 100 scale, 0 is no effect and 100 is complete control) [28]: 0
